Laboratory results reported in patent US10335494B2, “Combination of aurora kinase inhibitors and anti-CD30 antibodies” (Millennium Pharmaceuticals, Inc., priority 2013, dated 2019).

System: SR-786 tumor cells (SR786 xenograft ALCL model)
Assay: In vivo tumor efficacy model: SR786 xenograft ALCL model, SGN35 and MLN8237 alone or in combination
Parameters: species or system CB17 SCID female mice
Settings: for average tumor volume day 15 / average tumor volume day 21: in mm³
Procedure: SR-786 (4.0×10^6) tumor cells in RPMI-1640 media were aseptically injected into the subcutaneous space in the right dorsal flank of CB17 SCID female mice (Taconic Farms, Inc) using a 26 G 5/8 needle.
Brentuximab vedotin (SGN35), one vial (Seattle Genetics) was reconstituted in 10.5 ml sterile water to give a stock solution at 4.76 mg/ml concentration. The stock solution was formulated in 0.9% saline to reach the desired concentration and administered by intraperitoneal injection (IP) q4Dx21 days at 0.3 mg/kg and 0.4 mg/kg.
MLN8237 was formulated in 10% hydroxypropyl-beta-cyclodextrin and 1% sodium bicarbonate (10% HPbCD+1% NaHCO3) and administered by oral injection (1 cc syringe, 20-22 gauge) on QD schedule at 10 mg/kg and 20 mg/kg for 21 days. MLN8237 as used in the experimental section refers to alisertib sodium salt and the amount referenced is the amount of alisertib used.
Tumors were measured twice weekly using a vernier caliper. Tumor volumes were calculated using standard procedures (0.5×[…]). When the tumors reached a volume of approximately 200 mm^3 (SR-786), mice were randomized into 6-8 groups as described in the tables below, and injected with vehicle, MLN8237 or SGN35 or the combination of MLN8237 with SGN35, at various doses as described below in Tables 1 and 2. Tumor size and body weight were measured approximately twice a week for the duration of the study. Mice were euthanized when their tumor volume reached 10% of their body weight, or when the average tumor volume of a treatment or control group reached approximately 2000 mm^3. Tumor growth continued to be monitored after the dosing period in this study. Average tumor volume is reported as a function of time for selected groups in FIG. 1A and FIG. 1B.
The synergy analysis is based on the tumor volume data from day 0 to 21. Volume measurements below 25 cubic mm are excluded from the analysis because very low volumes cannot be measured accurately. The remaining measurements are log transformed and fit to a simple linear model with the measurement day as a covariate. The data are fit separately for the different animals to yield an estimated tumor growth rate for each animal in each treatment group. Based on the growth rates, the synergy score for the combination of agents A and B is defined as 100*(mean(μAB)−mean(μA)−mean(μB)+mean(μctl))/mean(μctl): where μAB, μA, μB, and μctl are the mean tumor growth rates for animals in the combination group, the A group, the B group, and the control group, respectively. The standard error of the synergy score is computed based on the variation in the growth rates among the animals. […] If the P-value is above 0.05, then the combination is considered to be additive. If the P-value is below 0.05, and the synergy score is less than zero, then the combination is considered to be synergistic. […] Otherwise, the combination is classified as antagonistic. Results

Molecule	average tumor volume day 15 (0.3 mg/kg SGN35, Q4d, I.P)	average tumor volume day 21 (0.3 mg/kg SGN35, Q4d, I.P)	average tumor volume day 15 (0.4 mg/kg SGN35, Q4d, I.P)	average tumor volume day 21 (0.4 mg/kg SGN35, Q4d, I.P)	tumor growth compared to the control vehicle group (single agent SGN35 0.3 and 0.4 mg/kg I.P Q4d)	average tumor volume day 15 (10 mg/kg MLN8237, QD, P.O)	average tumor volume day 21 (10 mg/kg MLN8237, QD, P.O)	average tumor volume day 15 (20 mg/kg MLN8237, QD, P.O)	average tumor volume day 21 (20 mg/kg MLN8237, QD, P.O)	tumor growth compared to the control vehicle group (single agent MLN8237 P.O 10 mg/kg and 20 mg/kg QD)
SGN35	1136.1	1676	491.3	553.8	inhibited tumor growth	–	–	–	–	–
COc1cc(Nc2ncc3c(n2)-c2ccc(Cl)cc2C(c2c(F)cccc2OC)=NC3)ccc1C(=O)O [MLN8237, 4-{[9-chloro-7-(2-fluoro-6-methoxyphenyl)-5H-pyrimido[5,4-d][2]benzazepin-2-yl]amino}-2-methoxybenzoic acid]	–	–	–	–	–	625.4	1121	387.1	576.4	inhibited tumor growth
